Values quoted from earlier work in patent publication CN103919735A, “一种盐酸坦索罗辛缓释微丸及其制备方法” (Pharmaceutical (wuhan) Co Ltd, priority 2014, dated 2014).

Test system: BPH patients [BPH患者]
Conditions: for relief of LUTS caused by BPH (in words): large number of studies

CCOc1ccccc1OCCN[C@H](C)Cc1ccc(OC)c(S(N)(=O)=O)c1 [盐酸坦索罗辛]
efficacy in long-term use (in words) (clinical study of 6 years in BPH, stated for α1 receptor blockers): 能够维持稳定的疗效
time to symptom improvement after treatment (clinical, BPH): 48 h
relief of LUTS caused by BPH (in words): 均能有效缓解

CC(C)(C)NC(=O)[C@H]1CC[C@H]2[C@@H]3CC[C@H]4NC(=O)C=C[C@]4(C)[C@H]3CC[C@]12C [非那雄胺]
relief of LUTS caused by BPH (in words): 均能有效缓解
